Measured values reported in PubChem BioAssay (NCI).
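Test compounds were applied to cells in 96-well plates for 48 hours at 5 doses. GI50 = concentration required for 50% inhibition of growth. At the TGI there is no net growth.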

What was measured:
Experiment in all cases: DTP human tumour cell line panel, 48 h
ACHN renal = test system: ACHN renal
MALME-3M melanoma = test system: MALME-3M melanoma
M14 melanoma = test system: M14 melanoma
SN12C renal = test system: SN12C renal
TK-10 renal = test system: TK-10 renal
SW-620 colon = test system: SW-620 colon
OVCAR-8 ovarian = test system: OVCAR-8 ovarian
LOX IMVI melanoma = test system: LOX IMVI melanoma
NCI/ADR-RES ovarian = test system: NCI/ADR-RES ovarian
RXF 393 renal = test system: RXF 393 renal
OVCAR-4 ovarian = test system: OVCAR-4 ovarian
COLO 205 colon = test system: COLO 205 colon
CAKI-1 renal = test system: CAKI-1 renal
MDA-MB-435 = test system: MDA-MB-435
OVCAR-5 ovarian = test system: OVCAR-5 ovarian
HL-60(TB) leukemia = test system: HL-60(TB) leukemia
DU-145 prostate = test system: DU-145 prostate
786-0 renal = test system: 786-0 renal
HOP-62 NSCLC = test system: HOP-62 NSCLC
CCRF-CEM leukemia = test system: CCRF-CEM leukemia
HCC-2998 colon = test system: HCC-2998 colon
U251 CNS = test system: U251 CNS
SK-OV-3 ovarian = test system: SK-OV-3 ovarian
RPMI-8226 leukemia = test system: RPMI-8226 leukemia
NCI-H460 lung = test system: NCI-H460 lung
HT29 colon = test system: HT29 colon
HCT-116 colon = test system: HCT-116 colon
PC-3 prostate = test system: PC-3 prostate
NCI-H522 lung = test system: NCI-H522 lung
NCI-H23 lung = test system: NCI-H23 lung
OVCAR-3 ovarian = test system: OVCAR-3 ovarian
HOP-92 NSCLC = test system: HOP-92 NSCLC
HS 578T breast = test system: HS 578T breast
SK-MEL-2 melanoma = test system: SK-MEL-2 melanoma
T-47D breast = test system: T-47D breast
SK-MEL-28 melanoma = test system: SK-MEL-28 melanoma
BT-549 breast = test system: BT-549 breast
K-562 leukemia = test system: K-562 leukemia
MDA-MB-231 breast = test system: MDA-MB-231 breast
SF-268 CNS = test system: SF-268 CNS
KM12 colon = test system: KM12 colon
NCI-H226 lung = test system: NCI-H226 lung
UACC-62 melanoma = test system: UACC-62 melanoma
A549 NSCLC = test system: A549 NSCLC
SF-295 CNS = test system: SF-295 CNS
MCF7 breast = test system: MCF7 breast
UACC-257 melanoma = test system: UACC-257 melanoma
SR leukemia = test system: SR leukemia
A498 renal = test system: A498 renal
UO-31 renal = test system: UO-31 renal
HCT-15 colon = test system: HCT-15 colon
IGROV1 ovarian = test system: IGROV1 ovarian
SNB-75 CNS = test system: SNB-75 CNS
SNB-19 CNS = test system: SNB-19 CNS
SK-MEL-5 melanoma = test system: SK-MEL-5 melanoma
SF-539 CNS = test system: SF-539 CNS
MOLT-4 leukemia = test system: MOLT-4 leukemia

O=C1/C(=C/c2ccc(Cl)cc2)CN(Cc2cn(CCCNc3ccnc4cc(Cl)ccc34)nn2)C/C1=C\c1ccc(Cl)cc1
GI50 (ACHN renal): 1.45 µM | TGI (ACHN renal): 2.84 µM | GI50 (MALME-3M melanoma): 1.71 µM | TGI (MALME-3M melanoma): 3.28 µM | GI50 (M14 melanoma): 1.72 µM | TGI (M14 melanoma): 3.68 µM | GI50 (SN12C renal): 0.96 µM | TGI (SN12C renal): 2.77 µM | GI50 (TK-10 renal): 1.7 µM | TGI (TK-10 renal): 3.15 µM | GI50 (SW-620 colon): 0.316 µM | TGI (SW-620 colon): 1.37 µM | GI50 (OVCAR-8 ovarian): 0.572 µM | TGI (OVCAR-8 ovarian): 1.41 µM | GI50 (LOX IMVI melanoma): 0.249 µM | TGI (LOX IMVI melanoma): 0.719 µM | GI50 (NCI/ADR-RES ovarian): 1.65 µM | TGI (NCI/ADR-RES ovarian): 6.51 µM | GI50 (RXF 393 renal): 1.65 µM | TGI (RXF 393 renal): 3.15 µM | GI50 (OVCAR-4 ovarian): 0.5 µM | TGI (OVCAR-4 ovarian): 2.38 µM | GI50 (COLO 205 colon): 0.565 µM | TGI (COLO 205 colon): 1.8 µM | GI50 (CAKI-1 renal): 0.734 µM | TGI (CAKI-1 renal): 2.92 µM | GI50 (MDA-MB-435): 1.3 µM | TGI (MDA-MB-435): 2.69 µM | GI50 (OVCAR-5 ovarian): 1.26 µM | TGI (OVCAR-5 ovarian): 3.06 µM | GI50 (HL-60(TB) leukemia): 0.809 µM | TGI (HL-60(TB) leukemia): 3.33 µM | GI50 (DU-145 prostate): 1.16 µM | TGI (DU-145 prostate): 2.47 µM | GI50 (786-0 renal): 0.754 µM | TGI (786-0 renal): 2.06 µM | GI50 (HOP-62 NSCLC): 1.47 µM | TGI (HOP-62 NSCLC): 2.94 µM | GI50 (CCRF-CEM leukemia): 0.426 µM | TGI (CCRF-CEM leukemia): > 20.5 µM | GI50 (HCC-2998 colon): 0.273 µM | TGI (HCC-2998 colon): 0.712 µM | GI50 (U251 CNS): 0.269 µM | TGI (U251 CNS): 0.9 µM | GI50 (SK-OV-3 ovarian): 1.84 µM | TGI (SK-OV-3 ovarian): 3.52 µM | GI50 (RPMI-8226 leukemia): 0.285 µM | TGI (RPMI-8226 leukemia): 0.878 µM | GI50 (NCI-H460 lung): 0.429 µM | TGI (NCI-H460 lung): 2.06 µM | GI50 (HT29 colon): 0.27 µM | TGI (HT29 colon): 0.775 µM | GI50 (HCT-116 colon): 0.305 µM | TGI (HCT-116 colon): 0.833 µM | GI50 (PC-3 prostate): 0.391 µM | TGI (PC-3 prostate): 1.59 µM | GI50 (NCI-H522 lung): 1.61 µM | TGI (NCI-H522 lung): 3.17 µM | GI50 (NCI-H23 lung): 1.26 µM | TGI (NCI-H23 lung): 3.82 µM | GI50 (OVCAR-3 ovarian): 0.56 µM | TGI (OVCAR-3 ovarian): 1.85 µM | GI50 (HOP-92 NSCLC): 1.46 µM | TGI (HOP-92 NSCLC): 3.18 µM | GI50 (HS 578T breast): 1.39 µM | TGI (HS 578T breast): 5.95 µM | GI50 (SK-MEL-2 melanoma): 2.03 µM | TGI (SK-MEL-2 melanoma): 3.71 µM | GI50 (T-47D breast): 1.95 µM | TGI (T-47D breast): 6.37 µM | GI50 (SK-MEL-28 melanoma): 1.82 µM | TGI (SK-MEL-28 melanoma): 3.41 µM | GI50 (BT-549 breast): 1.64 µM | TGI (BT-549 breast): 3.18 µM | GI50 (K-562 leukemia): 0.289 µM | TGI (K-562 leukemia): 3.79 µM | GI50 (MDA-MB-231 breast): 0.757 µM | TGI (MDA-MB-231 breast): 2.45 µM | GI50 (SF-268 CNS): 0.54 µM | TGI (SF-268 CNS): 2.01 µM | GI50 (KM12 colon): 0.291 µM | TGI (KM12 colon): 1.11 µM | GI50 (NCI-H226 lung): 1.92 µM | TGI (NCI-H226 lung): 4.39 µM | GI50 (UACC-62 melanoma): 1.77 µM | TGI (UACC-62 melanoma): 3.35 µM | GI50 (A549 NSCLC): 1.15 µM | TGI (A549 NSCLC): 2.56 µM | GI50 (SF-295 CNS): 0.708 µM | TGI (SF-295 CNS): 1.84 µM | GI50 (MCF7 breast): 0.362 µM | TGI (MCF7 breast): 1.46 µM | GI50 (UACC-257 melanoma): 1.72 µM | TGI (UACC-257 melanoma): 3.25 µM | GI50 (SR leukemia): 0.379 µM | TGI (SR leukemia): 1.93 µM | GI50 (A498 renal): 1.23 µM | TGI (A498 renal): 2.53 µM | GI50 (UO-31 renal): 1.16 µM | TGI (UO-31 renal): 2.45 µM | GI50 (HCT-15 colon): 0.283 µM | TGI (HCT-15 colon): 0.926 µM | GI50 (IGROV1 ovarian): 1.29 µM | TGI (IGROV1 ovarian): 3.12 µM | GI50 (SNB-75 CNS): 1.39 µM | TGI (SNB-75 CNS): 2.92 µM | GI50 (SNB-19 CNS): 0.643 µM | TGI (SNB-19 CNS): 1.86 µM | GI50 (SK-MEL-5 melanoma): 1.72 µM | TGI (SK-MEL-5 melanoma): 3.14 µM | GI50 (SF-539 CNS): 0.645 µM | TGI (SF-539 CNS): 1.72 µM | GI50 (MOLT-4 leukemia): 0.878 µM | TGI (MOLT-4 leukemia): > 24.5 µM
